Test results as given in ChEMBL document CHEMBL4385605, “Synthesis and Structure-Affinity Relationships of Spirocyclic Benzopyrans with Exocyclic Amino Moiety” (J Med Chem, 2019).
Active and inactive are the calls of the source. The calls are words filed in the database; no cut-off is given here.

Assays:
[1] = biological target: Kappa-type opioid receptor (Cavia porcellus) (UniProt P41144); assay: Displacement of [3H]U69,593 from kappa opioid receptor in guinea pig brain membrane at 1 uM after 120 mins by scintillation counting analysis relative to control; assay type: cell membranes
Chain of Kappa-type opioid receptor (Cavia porcellus) (P41144 whole entry): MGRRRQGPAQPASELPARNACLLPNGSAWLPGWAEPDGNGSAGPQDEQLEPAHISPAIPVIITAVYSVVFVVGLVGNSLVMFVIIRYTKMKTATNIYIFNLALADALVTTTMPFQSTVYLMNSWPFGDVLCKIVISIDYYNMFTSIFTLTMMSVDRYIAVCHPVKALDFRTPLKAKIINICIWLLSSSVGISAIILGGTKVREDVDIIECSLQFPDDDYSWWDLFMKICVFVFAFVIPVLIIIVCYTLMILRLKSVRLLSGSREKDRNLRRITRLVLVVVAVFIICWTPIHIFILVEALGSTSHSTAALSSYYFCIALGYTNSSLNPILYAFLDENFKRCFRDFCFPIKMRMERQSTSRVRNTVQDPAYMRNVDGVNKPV

[2] = biological target: Sigma non-opioid intracellular receptor 1 (Cavia porcellus, UniProt Q60492); assay: Displacement of [3H](+)-pentazocine from sigma 1 receptor in guinea pig brain cortex membranes after 120 mins by scintillation counting analysis; assay type: cell membranes
Chain of Sigma non-opioid intracellular receptor 1 (Q60492 whole entry): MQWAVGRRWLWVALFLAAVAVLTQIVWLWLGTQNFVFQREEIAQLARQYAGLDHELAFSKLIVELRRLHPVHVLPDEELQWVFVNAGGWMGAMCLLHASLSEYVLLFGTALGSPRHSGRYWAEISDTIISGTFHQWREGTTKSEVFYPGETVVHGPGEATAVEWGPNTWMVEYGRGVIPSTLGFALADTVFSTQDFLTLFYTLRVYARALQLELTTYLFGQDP

[3] = biological target: Delta-type opioid receptor (Rattus norvegicus, UniProt P33533); assay: Displacement of [3H]DPDPE from delta opioid receptor in rat membranes after 120 mins by scintillation counting analysis; assay type: cell membranes
Chain of Delta-type opioid receptor (P33533 whole entry): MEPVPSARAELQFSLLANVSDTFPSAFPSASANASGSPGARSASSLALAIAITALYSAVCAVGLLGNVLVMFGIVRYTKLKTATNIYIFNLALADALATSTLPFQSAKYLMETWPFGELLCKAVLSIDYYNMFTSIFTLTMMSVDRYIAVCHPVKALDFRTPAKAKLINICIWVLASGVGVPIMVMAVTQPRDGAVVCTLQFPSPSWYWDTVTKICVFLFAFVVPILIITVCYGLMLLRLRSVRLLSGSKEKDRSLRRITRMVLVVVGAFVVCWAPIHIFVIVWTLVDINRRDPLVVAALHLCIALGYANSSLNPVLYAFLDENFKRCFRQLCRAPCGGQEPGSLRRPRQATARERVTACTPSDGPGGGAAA

[4] = biological target: T1, Sigma intracellular receptor 2 (Rattus norvegicus, UniProt Q5U3Y7); assay: Displacement of [3H]-di-o-tolylguanidine from sigma2 receptor in rat liver membranes incubated for 120 mins in the presence of sigma1 receptor ligand (+)-pentazocine by scintillation counting method; assay type: cell membranes
T1 sequence (Q5U3Y7 whole entry): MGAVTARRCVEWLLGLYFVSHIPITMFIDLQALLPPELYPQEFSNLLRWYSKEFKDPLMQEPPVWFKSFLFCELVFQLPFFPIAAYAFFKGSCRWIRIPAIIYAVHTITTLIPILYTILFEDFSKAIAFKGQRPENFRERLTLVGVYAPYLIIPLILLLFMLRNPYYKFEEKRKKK

[5] = Selectivity ratio of Ki for displacement of [3H]DTG from sigma2 receptor in rat liver membranes to Ki for displacement of (+)-[3H]pentazocine from sigma 1 receptor in guinea pig brain cortex membranes; assay type: cell membranes
[6] = biological target: Sigma intracellular receptor 2 (Homo sapiens, UniProt Q5BJF2); assay: Displacement of [3H]-di-o-tolylguanidine from sigma2 receptor in human RT4 cell membranes incubated for 120 mins in the presence of sigma1 receptor ligand (+)-pentazocine by scintillation counting method
Chain of Sigma intracellular receptor 2 (Homo sapiens, UniProt Q5BJF2) (Q5BJF2 whole entry): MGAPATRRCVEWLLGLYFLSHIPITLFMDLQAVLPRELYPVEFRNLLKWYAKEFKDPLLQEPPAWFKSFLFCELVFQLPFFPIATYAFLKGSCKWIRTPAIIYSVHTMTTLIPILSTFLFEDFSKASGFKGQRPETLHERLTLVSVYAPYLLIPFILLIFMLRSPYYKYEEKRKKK

Mu-type opioid receptor = Mu-type opioid receptor (Cavia porcellus, UniProt P97266); assay: Displacement of [3H]DAMGO from mu opioid receptor in guinea pig brain membranes after 120 mins by scintillation counting analysis; assay type: cell membranes
Chain of Mu-type opioid receptor (P97266 whole entry): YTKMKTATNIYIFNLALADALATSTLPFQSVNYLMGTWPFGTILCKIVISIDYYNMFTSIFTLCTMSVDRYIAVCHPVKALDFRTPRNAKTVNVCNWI

[7] = biological target: Mu-type opioid receptor (Cavia porcellus) (UniProt P97266); assay: Displacement of [3H]DAMGO from mu opioid receptor in guinea pig brain membranes at 1 uM after 120 mins by scintillation counting analysis relative to control; assay type: cell membranes
Chain of Mu-type opioid receptor (Cavia porcellus) (P97266 whole entry): as above

[8] = biological target: Delta-type opioid receptor (Rattus norvegicus) (UniProt P33533); assay: Displacement of [3H]DPDPE from delta opioid receptor in rat membrane at 1 uM after 120 mins by scintillation counting analysis relative to control; assay type: cell membranes
Chain of Delta-type opioid receptor (Rattus norvegicus) (P33533 whole entry): as the sequence (P33533 whole entry) above

Sus scrofa = species on record: Sus scrofa; assay: Displacement of [3H]-(+)-MK-801 from PCP binding site of NMDA receptor in pig brain cortex membranes up to 1 uM after 120 mins by scintillation counting analysis; assay type: cell membranes
[9] = biological target: Kappa-type opioid receptor (Cavia porcellus, UniProt P41144); assay: Displacement of [3H]U69,593 from kappa opioid receptor in guinea pig brain membrane after 120 mins by scintillation counting analysis; assay type: cell membranes
Chain of Kappa-type opioid receptor (P41144 whole entry): as the sequence (P41144 whole entry) above

| Structure (SMILES) | inhibition [1] [%] | Ki [2] [nM] | Ki [3] [nM] | Ki [4] [nM] | Ratio Ki [5] | Ki [6] [nM] | Ki (Mu-type opioid receptor) [nM] | inhibition [7] [%] | inhibition [8] [%] | Activity (Sus scrofa) | Ki [9] [nM] |
| --- | --- | --- | --- | --- | --- | --- | --- | --- | --- | --- | --- |
| COC1O[C@]2(CC[C@@H](NCC3CCCCC3)CC2)c2ccccc21 (stereo not given in full) | 23 | 20 | 143 | 52 | 5 to 10 | 11 | 501 | – | – | – | – |
| C1=Cc2ccccc2[C@]2(CC[C@H](NCC3CCCCC3)CC2)O1 | 18 | 5.7 | 209 | 67 | 5 to 10 | 6.7 | – | 15 | – | – | – |
| COC1O[C@]2(CC[C@@H](N(C)CC3CCCCC3)CC2)c2ccccc21 (stereo not given in full) | 0 | 8.2 | 559 | 70 | 5 to 10 | 7.6 | – | 16 | – | – | – |
| CCOC1Cc2ccccc2[C@]2(CC[C@@H](N(C)CC3CCCCC3)CC2)O1 (stereo not given in full) | 24 | 15 | – | 361 | 24 | 93 | 879 | – | 13 | – | – |
| COC1Cc2ccccc2[C@]2(CC[C@H](NCC3CCCCC3)CC2)O1 (stereo not given in full) | 28 | 5.8 | – | 101 | 5 to 10 | – | 462 | – | 33 | inactive | – |
| COC1O[C@]2(CC[C@H](N(C)CC3CCCCC3)CC2)c2ccccc21 (stereo not given in full) | – | 8 | 254 | 164 | 21 | 9.4 | 231 | – | – | – | 639 |
| COC1O[C@]2(CC[C@H](NCC3CCCCC3)CC2)c2ccccc21 (stereo not given in full) | – | 19 | 114 | 133 | 5 to 10 | 39 | 273 | – | – | – | 506 |
| c1ccc2c(c1)CCO[C@]21CC[C@@H](NCC2CCCCC2)CC1 | 16 | 18 | – | 84 | 5 to 10 | 33 | 841 | – | 11 | – | – |
| COC1Cc2ccccc2[C@]2(CC[C@H](NCc3ccccc3)CC2)O1 (stereo not given in full) | 27 | – | – | – | – | 227 | – | 20 | 41 | inactive | – |
| c1ccc(CN[C@H]2CC[C@]3(CC2)OCCc2ccccc23)cc1 | 0 | 97 | – | 503 | 5 to 10 | – | – | 0 | 20 | – | – |
| COC1Cc2ccccc2[C@]2(CC[C@@H](NCC3CCCCC3)CC2)O1 (stereo not given in full) | – | 19 | 228 | 128 | 5 to 10 | – | 354 | – | – | inactive | 96 |
| CN(CC1CCCCC1)[C@H]1CC[C@@]2(CC1)OCCc1ccccc12 | 23 | 8 | 187 | 175 | 22 | 12 | – | – | – | – | – |
| CN(CC1CCCCC1)[C@H]1CC[C@@]2(CC1)OC=Cc1ccccc12 | – | 4.9 | – | 81 | 5 to 10 | 16 | 163 | – | 11 | – | – |
| CCOC1Cc2ccccc2[C@]2(CC[C@H](N(C)CC3CCCCC3)CC2)O1 (stereo not given in full) | 18 | 8.1 | 356 | 42 | 5 to 10 | 14 | 297 | – | – | – | – |
| CCOC1Cc2ccccc2[C@]2(CC[C@@H](NCC3CCCCC3)CC2)O1 (stereo not given in full) | – | 183 | 185 | 161 | 5 to 10 | 16 | 185 | – | – | – | 85 |
| COC1O[C@]2(CC[C@@H](NCc3ccccc3)CC2)c2ccccc21 (stereo not given in full) | – | 50 | 655 | 751 | 5 to 10 | – | 768 | – | – | – | 1140 |
| CN(CC1CCCCC1)[C@H]1CC[C@]2(CC1)OC=Cc1ccccc12 | – | 2.3 | – | 33 | 5 to 10 | 4.6 | 391 | – | 38 | – | – |
| CCOC1Cc2ccccc2[C@]2(CC[C@H](NCC3CCCCC3)CC2)O1 (stereo not given in full) | – | 36 | 432 | 308 | 5 to 10 | 46 | 495 | – | – | – | 745 |
| CN(CC1CCCCC1)[C@H]1CC[C@]2(CC1)OCCc1ccccc12 | 10 | 3.1 | 565 | 30 | 5 to 10 | 5.5 | – | 13 | – | – | – |
| c1ccc2c(c1)CCO[C@]21CC[C@H](NCC2CCCCC2)CC1 | – | 15 | 178 | 99 | 5 to 10 | 8 | 114 | – | – | – | 236 |
| C1=Cc2ccccc2[C@]2(CC[C@@H](NCC3CCCCC3)CC2)O1 | – | 12 | 479 | 53 | 5 to 10 | 7 | 258 | – | – | – | 604 |
